Test results published in patent publication US20230107642A1 (Erasca, Inc., priority 2020, published 2023).

molecular target: T1, Cys12 of the KRAS 4B G12C protein (Homo sapiens, UniProt P01116, G12C); assay: In vitro covalent adduct formation (CAF) assay, LC-MS intact mass; format: binding; conditions: 10 uM compound, 60 min
T1 construct: This protein contained 188 amino acids in total, including an N-terminal 6-Histidine tag; made in house; host or cells: E. coli BL21
Description: This Example provides a protocol for assessing covalent adduct formation (CAF) between the compounds of the present application and KRAS.
In vitro covalent adduct formation assay: Covalent adduct formation (CAF) reactions between Cys12 of the KRAS 4B G12C protein and some of the compounds of Tables 1 to 4 were measured in vitro using liquid chromatography-mass spectrometry (LC-MS).
Recombinant Human KRAS 4B protein containing the G12C mutation was used in compound screening experiments. This protein contained 188 amino acids in total, including an N-terminal 6-Histidine tag, followed by a Tobacco Etch Virus (TEV) tag, followed by residues 1-169 of the native KRAS 4B sequence. The exact mass of the protein was 21,310 Da as determined by mass spectrometry. The full amino acid sequence is shown below: […]
The recombinant protein was expressed in E. coli BL21 cells and purified using affinity chromatography via a Ni-NTA column. Protein stocks were nucleotide-exchanged to >95% GDP, concentrated to 4 mg/mL, and stored at −80° C. in storage buffer (50 mM HEPES pH 7.4, 50 mM NaCl, 5 mM MgCl2, 1 mM DTT). Pure KRAS 4B G12C protein was diluted to a concentration of 5 μM in Tris Buffered Saline, pH 7.4. The compounds were dissolved in DMSO and added to the diluted protein to make a 10 μM concentration. The total DMSO concentration in the reaction was 4%. The reaction was mixed by pipetting and incubated at 22° C. for one hour. Aliquots of the reaction were taken over time and diluted 2:1 in 0.1% formic acid. The intact mass of the protein samples was measured by LC-MS using a QExactive+ mass spectrometer (Thermo Scientific). An amount of 500 ng total protein was injected onto a C8 reverse phase column, eluted with a seven-minute gradient of 30%-90% acetonitrile/0.1% formic acid, and analyzed for intact mass by the mass spectrometer. Adducts identified were confirmed to be within 1 Dalton of the expected mass, and the relative ratios of free:adduct protein were used to quantify the percentage of protein bound by the compound. CAF reactions were run in duplicate, with a typical variability of ±5%.

SMILES | % CAF 10 uM @ 60 min [%]
C=CC(=O)N1C[C@H](C)N(c2nc(=O)n3c4c(c(-c5cccc6cnn(C)c56)c(C(F)(F)F)cc24)SC[C@@H]3CN2CCN(C3CC3)CC2)C[C@H]1C (atropisomer, axis not shown) [Example 1388, (3S,10S)-7-((2S,5R)-4-acryloyl-2,5-dimethylpiperazin-1-yl)-3-((4-cyclopropylpiperazin-1-yl)methyl)-10-(1-methyl-1H-indazol-7-yl)-9-(trifluoromethyl)-2,3-dihydro-5H-[1,4]thiazino[2,3,4-ij]quinazolin-5-one] | 95.3
C=CC(=O)N1[C@H](C)CN(c2nc(=O)n3c4c(c(-c5cc(Cl)c(F)cc5F)c(C(F)(F)F)cc24)SCC(COC)(COC)C3)C[C@@H]1C (atropisomer, axis not shown) [Example 1420, (S)-8-((3S,5R)-4-acryloyl-3,5-dimethylpiperazin-1yl)-11-(5-chloro-2,4-difluorophenyl)-3,3-bis(methoxymethyl)-10-(trifluoromethyl)-3,4-dihydro-2H,6H-[1,4]thiazepino[2,3,4-ij]quinazolin-6-one] | 93
C=CC(=O)N1[C@H](C)CN(c2nc(=O)n3c4c(c(-c5ccc(F)cc5F)c(C(F)(F)F)cc24)SC[C@@H]3COCOC)C[C@@H]1C (atropisomer, axis not shown) [Example 1320, (3S,10R)-7-((3S,5R)-4-acryloyl-3,5-dimethylpiperazin-1-yl)-10-(2,4-difluorophenyl)-3-((methoxymethoxy)methyl)-9-(trifluoromethyl)-2,3-dihydro-5H-[1,4]thiazino[2,3,4-ij]quinazolin-5-one] | 97.4
C=CC(=O)N1[C@H](C)CN(c2nc(=O)n3c4c(c(-c5ccc(F)cc5)c(C(F)(F)F)cc24)SC[C@@H]3CN2C[C@@H]3C[C@H]2CO3)C[C@@H]1C [Example 1352, (S)-3-(((1S,4S)-2-oxa-5-azabicyclo[2.2.1]heptan-5-yl)methyl)-7-((3S,5R)-4-acryloyl-3,5-dimethylpiperazin-1-yl)-10-(4-fluorophenyl)-9-(trifluoromethyl)-2,3-dihydro-5H-[1,4]thiazino[2,3,4-ij]quinazolin-5-one] | 96.1
C=CC(=O)N1[C@H](C)CN(c2nc(=O)n3c4c(c(-c5ccc(F)cc5)c(C(F)(F)F)cc24)SC[C@@H]3CN2CCN(CC)CC2)C[C@@H]1C [Example 1344, (S)-7-((3S,5R)-4-acryloyl-3,5-dimethylpiperazin-1-yl)-3-((4-ethylpiperazin-1-yl)methyl)-10-(4-fluorophenyl)-9-(trifluoromethyl)-2,3-dihydro-5H-[1,4]thiazino[2,3,4-ij]quinazolin-5-one] | 96

The remaining lines, values ahead:

% CAF 10 uM @ 60 min [%] | SMILES
97 | [2H]C1([2H])N(C(=O)C=C)C([2H])([2H])C([2H])([2H])N(c2nc(=O)n3c4c(c(-c5cc(Cl)c(F)cc5F)c(C(F)(F)F)cc24)SCC2(COC2)C3)C1([2H])[2H] [Example 1309, 8′-(4-acryloylpiperazin-1-yl-2,2,3,3,5,5,6,6-d8)-11′-(5-chloro-2,4-difluorophenyl)-10′-(trifluoromethyl)-2′H,4′H,6′H-spiro[oxetane-3,3′-[1,4]thiazepino[2,3,4-ij]quinazolin]-6′-one]
66.2 | C=CC(=O)N1[C@H](C)CN(c2nc(=O)n3c4c(c(-c5ccc(F)c(Cl)c5)c(C(F)(F)F)cc24)SC[C@@H]3CN2CCN(CC)CC2)C[C@@H]1C [Example 1373, (S)-7-((3S,5R)-4-acryloyl-3,5-dimethylpiperazin-1-yl)-10-(3-chloro-4-fluorophenyl)-3-((4ethylpiperazin-1-yl)methyl)-9-(trifluoromethyl)-2,3-dihydro-5H-[1,4]thiazino[2,3,4-ij]quinazolin-5-one]
94.4 | C=CC(=O)N1[C@H](C)CN(c2nc(=O)n3c4c(c(-c5cc(Cl)c(F)cc5F)c(C(F)(F)F)cc24)SC[C@@H]3CN2CCN(C3CC3)CC2)C[C@@H]1C (atropisomer, axis not shown) [Example 1348, (3S,10R)-7-((3S,5R)-4-acryloyl-3,5-dimethylpiperazin-1-yl)-10-(5-chloro-2,4-difluorophenyl)-3-((4-cyclopropylpiperazin-1-yl)methyl)-9-(trifluoromethyl)-2,3-dihydro-5H-[1,4]thiazino[2,3,4-ij]quinazolin-5-one]

same assay, conditions: 10 uM compound, 60 min incubation

% CAF 10 uM @ 60 min [%] | SMILES
95.5 | C=CC(=O)N1C[C@H](C)N(c2nc(=O)n3c4c(c(-c5cc(Cl)c(F)cc5F)c(C(F)(F)F)cc24)SCC2(COC2)C3)C[C@H]1C (single isomer, unassigned) [Example 1121]
95.6 | C=CC(=O)N1[C@H](C)CN(c2nc(=O)n3c4c(c(-c5cccc6cnn(C)c56)c(C(F)(F)F)cc24)SC[C@@H]3COC)C[C@@H]1C (atropisomer, axis not shown) [Example 1130, (3S,10S)-7-((3S,5R)-4-acryloyl-3,5-dimethylpiperazin-1-yl)-3-(methoxymethyl)-10-(1-methyl-1H-indazol-7-yl)-9-(trifluoromethyl)-2,3-dihydro-5H-[1,4]thiazino [2,3,4-ij]quinazolin-5-one]
98.4 | C=CC(=O)N1CCN(c2nc(=O)n3c4c(c(-c5ccc(F)cc5)c(C(F)(F)F)cc24)SCC2(COC2)C3)CC1 [Example 1116, 8′-(4-acryloylpiperazin-1-yl)-11′-(4-fluorophenyl)-10′-(trifluoromethyl)-2′H,4′H,6′H-spiro[oxetane-3,3′-[1,4]thiazepino [2,3,4-ij]quinazolin]-6′-one]

same assay, conditions: 10 μM compound, after 1 hour

CAF (% after 1 hour) [%] | SMILES
66 | C=C(F)C(=O)N1[C@H](C)CN(c2nc(=O)n3c4c(c(-c5cc(Cl)c(F)cc5F)c(C(F)(F)F)cc24)SC[C@@H](OC)C3)C[C@@H]1C [Example 1218, (3S)-11-(5-Chloro-2,4-difluorophenyl)-8-((3S,5R)-4-(2-fluoroacryloyl)-3,5-dimethylpiperazin-1-yl)-3-methoxy-10-(trifluoromethyl)-3,4-dihydro-2H,6H-[1,4]thiazepino[2,3,4-ij]quinazolin-6-one]
81 | C=CC(=O)N1[C@H](C)CN(c2nc(=O)n3c4c(c(-c5ccc(F)cc5C#N)c(C(F)(F)F)cc24)SC[C@@H](OC)C3)C[C@@H]1C [Example 1226, 2-((3S)-8-((3S,5R)-4-Acryloyl-3,5-dimethylpiperazin-1-yl)-3-methoxy-6-oxo-10-(trifluoromethyl)-3,4-dihydro-2H,6H-[1,4]thiazepino[2,3,4-ij]quinazolin-11-yl)-5-fluorobenzonitrile]

same assay, conditions: after 60 min

CAF (% binding after 60 min) [%] | SMILES
96 | C=CC(=O)N1[C@H](C)CN(c2nc(=O)n3c4c(c(-c5ccc(F)c(Cl)c5)c(C(F)(F)F)cc24)SC[C@@H](OC)C3)C[C@@H]1C [Example 1046, (S)-8-((3S,5R)-4-acryloyl-3,5-dimethylpiperazin-1-yl)-11-(3-chloro-4-fluorophenyl)-3-methoxy-10-(trifluoromethyl)-3,4-dihydro-2H,6H-[1,4]thiazepino[2,3,4-ij]quinazolin-6-one]
92 | C=CC(=O)N1CCN(c2nc(=O)n3c4c(c(-c5cc(Cl)c(F)cc5F)c(C(F)(F)F)cc24)SC[C@H](OCOC)C3)CC1 [Example 1008, (3R)-8-(4-acryloylpiperazin-1-yl)-11-(5-chloro-2,4-difluorophenyl)-3-(methoxymethoxy)-10-(trifluoromethyl)-3,4-dihydro-2H,6H-[1,4]thiazepino[2,3,4-ij]quinazolin-6-one]
